Measured values as given in patent publication US20050159599A1, “Cyclic compound, process for producing the same, and pest control agent” (priority 2002, published 2005).
Each block holds one compound with its values, some of them ahead of it.

Assays:
Plutella xylostella [1] = assay: Insecticidal effect for Plutella xylostella by immersion treatment of host crop (Test Example 1); type: in vivo; settings: cabbage leaf dipped, second-instar larvae of Plutella xylostella, fifth day after; for rate of dead pests (%): 100 ppm; for pest or weed control at 100 ppm: foliar, 120 h, read-out: rate of dead pests (%)
Outline: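 Cabbage leaf discs dipped in 100 ppm compound (acetone/Tween 20, diluted in sticker water), dried, then infested with ten second-instar larvae and kept at 24° C. Survivors counted on day 5; mortality expressed as dead/tested pests ×100.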

Plutella xylostella [2] = assay: Pest control effect for Plutella xylostella by plant seedling foot soil surface irrigation treatment, 24th day (Test Example 6); type: in vivo; settings: 20 mg/plant; soil surface irrigation of cabbage; larvae counted on the 24th day
Protocol: (§1) Pest Control Effect for Plutella xylostella by Plant Seedling Foot Soil Surface Irrigation Treatment With Pesticidal Solution
(§2) A pesticidal solution which was prepared by dissolving 20 mg of test compound (represented by the compound Nos. in the above Examples) in 0.2 ml of acetone containing Tween 20 (trade name) and then diluting to 3 ml with ion-exchange water, was irrigated on the plant foot soil surface of 2.5-leave stage cabbage. This cabbage plant was transplanted to 1/5000a pot, and left in a facility wherein imagoes of Plutella xylostella were set free to lay eggs successively. On the 24th day after, the number of lavae on the plant was examined. The rate of pest control was calculated by the following formula. rate of pest control (%)=(1−number of pests in treated plant/number of pests in non-treated-plant)×100

Spodoptera litura [3] = assay: Insecticidal effect for Spodoptera litura by spraying treatment to host crop (Test Example 2); type: in vivo; settings: 100 ppm, sprayed on soybean, third-instar larvae of Spodoptera litura, fifth day after; for pest or weed control at 100 ppm: 120 h, read-out: rate of dead pests (%)
Outline: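 Ten third-instar larvae held at 25° C. on two excised primary soybean leaves previously sprayed to dripping with 100 ppm test solution. Mortality (%) calculated from dead versus tested larvae on the fifth day.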

Spodoptera litura [4] = assay: Insecticidal effect for Spodoptera litura by immersion treatment of host crop root (Test Example 4); type: in vivo; settings: 25 ppm, soybean root immersion 5 days, second-instar larvae of Spodoptera litura, fifth day after; for pest or weed control at 25 ppm: 120 h, read-out: rate of dead pests (%)
Outline: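 Soil was washed from the roots of soybean plants at the primary-leaf stage, and the roots were immersed in a pesticidal solution held in a light-shielded 100 ml Erlenmeyer flask. The solution was made from acetone containing Tween 20, diluted with ion-exchange water. Five days after root immersion, two primary leaves were cut and placed in a 180 ml cup with ten second-instar Spodoptera litura larvae, then kept at 25° C. Survivors were counted five days later. The rate of dead pests (%) was calculated as dead pests divided by test pests, times 100.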

Plutella xylostella [5] = assay: Insecticidal effect for Plutella xylostella by immersion treatment of host crop root (Test Example 3); type: in vivo; settings: 25 ppm, cabbage root immersed 5 days, ten second-instar larvae on stem and leaves, counted on the fifth day, 24° C.; for pest or weed control at 25 ppm: Plutella xylostella, 120 h, read-out: rate of dead pests (%)
Protocol: Insecticidal Effect for Plutella xylostella by Immersion Treatment of Host Crop Root
Roots of 4-leave stage cabbage was washed with tap water to remove soil, and then immersed in a pesticidal solution which was prepared by dissolving 5 mg of test compound (represented by the compound Nos. in the above Examples) in 0.5 ml of acetone containing Tween 20 (trade name) and then diluting it to the prescribed concentration (25 ppm) with ion-exchange water, and which was filled in a light-shielded Erlenmeyer flask (100 ml). On the fifth day after immersion of root, the root was cut off, and the stem and leaves were put into an ice cream cup (180 ml). Ten second-instar larvae of Plutella xylostella were set free therein, and the cup was left in a temperature-controlled breeding room (24° C.). On the fifth day after, the number of surviving Plutella xylostella was examined. The rate of dead pests was calculated by the following formula. rate of dead pests (%)=(number of dead pests/number of test pests)×100

Plutella xylostella [6] = assay: Pest control effect for Plutella xylostella by plant seedling foot soil surface irrigation treatment, 30th day (Test Example 7); type: in vivo; settings: 20 mg/plant; soil surface irrigation of cabbage; larvae counted on the 30th day
Protocol: as §1
as §2, with “30th” for “24th”, “non-treated plant)×100” for “non-treated-plant)×100”

Plutella xylostella [7] = assay: Insecticidal effect for Plutella xylostella by seed treatment (Test Example 8); type: in vivo; settings: cabbage seed treatment, leaves cut 31st day after sowing, first-instar larvae, third day after
Protocol: Insecticidal Effect for Plutella xylostella by Seed Treatment 4% aqueous solution of PVA (polyvinylalcohol) was applied to seeds of cabbage. Then the seeds were powdered with test compound (represented by the compound Nos. in the above Examples), and sowed in a Φ 6 cm in diameter Jiffy Pot (trade name). On the 31th day after sowing, the stem and leaves were cut off, and were put into an ice cream cup (180 ml). Fifteen first-instar larvae of Plutella xylostella were set free therein, and the cup was left in a temperature-controlled breeding room (24° C.). On the third day after, the number of surviving Plutella xylostella was examined. The rate of dead pests was calculated by the following formula. rate of dead pests (%)=(number of dead pests/number of test pests)×100

melting point: 40 to 45 °C
SMILES: O=C(c1c(F)cccc1F)N1COCN(c2ccc([S+]([O-])C(F)(C(F)(F)F)C(F)(F)F)cc2F)C1=O (centres unmarked) [I-159, 3-(2,6-difluorobenzoyl)-5-[2-fluoro-4-(1,1,1,2,3,3,3-heptafluoro-2-propylsulfinyl)phenyl]tetrahydro-4H-1,3,5-oxadiazin-4-one]

SMILES: O=C(c1c(F)cccc1F)N1CNCN(c2ccc(SC(F)(F)C(F)Cl)cc2F)C1=O (centres unmarked) [III-78]
rate of dead pests (%) (Plutella xylostella [1]): 100% | rate of pest control (%) (Plutella xylostella [2]): 83% | rate of dead pests (%) (Spodoptera litura [3]): 100%

melting point: 130 to 131 °C
SMILES: CC(C)N1CN(C(=O)c2c(F)cccc2F)C(=O)N(c2ccc(Cl)cc2)C1 [III-3, 1-(4-chlorophenyl)-3-(2,6-difluorobenzoyl)-5-isopropyltetrahydro-1,3,5-triazin-2(1H)-one]

melting point: 220 to 220.5 °C
SMILES: O=C(c1c(F)cccc1F)N1C[S+]([O-])CN(c2ccc(Cl)cc2)C1=O (centres unmarked) [II-2, 3-(4-chlorophenyl)-5-(2,6-difluorobenzoyl)tetrahydro-4H-1,3,5-thiadiazin-4-one-1-oxide]

SMILES: O=C(c1c(F)cccc1F)N1COCN(c2ccc([S+]([O-])C(F)(F)F)cc2)C1=O (centres unmarked) [I-26]
rate of dead pests (%) (Spodoptera litura [4]): 100% | rate of dead pests (%) (Plutella xylostella [1]): 100% | rate of pest control (%) (Plutella xylostella [2]): 100% | rate of dead pests (%) (Spodoptera litura [3]): 100% | rate of dead pests (%) (Plutella xylostella [5]): 100%

SMILES: CN1CN(C(=O)c2c(F)cccc2F)C(=O)N(c2ccc([S+]([O-])C(F)(F)C(F)Cl)cc2F)C1 (centres unmarked) [III-84]
rate of dead pests (%) (Plutella xylostella [1]): 100% | rate of pest control (%) (Plutella xylostella [2]): 100% | rate of dead pests (%) (Spodoptera litura [3]): 100%

SMILES: CN1CN(C(=O)c2c(F)cccc2F)C(=O)N(c2ccc(SC(F)(F)F)cc2F)C1 [III-160, 1-(2,6-difluorobenzoyl)-3-[2-fluoro-4-(trifluoromethylthio)phenyl]-5-methyltetrahydro-1,3,5-triazin-2(1H)-one]
rate of pest control (%) (Plutella xylostella [6]): 91% | pest or weed control at 100 ppm (Plutella xylostella [1]): 100% | pest or weed control at 100 ppm (Spodoptera litura [3]): 100% | pest or weed control at 25 ppm (Plutella xylostella [5]): 90%

SMILES: CN1CN(C(=O)c2c(F)cccc2F)C(=O)N(c2ccc([S+]([O-])C(F)(F)F)cc2F)C1 (centres unmarked) [III-164, 1-(2,6-difluorobenzoyl)-3-[2-fluoro-4-(trifluoromethylsulfinyl)phenyl]-5-methyltetrahydro-1,3,5-triazin-2(1H)-one]
rate of pest control (%) (Plutella xylostella [6]): 95% | pest or weed control at 25 ppm (Spodoptera litura [4]): 100% | pest or weed control at 100 ppm (Plutella xylostella [1]): 100% | pest or weed control at 100 ppm (Spodoptera litura [3]): 100%

melting point: 128.5 to 130.5 °C
SMILES: O=C(c1c(F)cccc1F)N1CSCN(c2ccc(Cl)cc2)C1=O [II-1, 3-(4-chlorophenyl)-5-(2,6-difluorobenzoyl)tetrahydro-4H-1,3,5-thiadiazin-4-one]

SMILES: C#CCN1CN(C(=O)c2c(F)cccc2F)C(=O)N(c2ccc([S+]([O-])C(F)(F)C(F)Cl)cc2F)C1 (centres unmarked) [III-89]
rate of dead pests (%) (Plutella xylostella [1]): 100% | rate of pest control (%) (Plutella xylostella [2]): 92% | rate of dead pests (%) (Spodoptera litura [3]): 100% | rate of dead pests (%) (Plutella xylostella [5]): 100%

melting point: 274 to 275 °C
SMILES: O=C(c1c(F)cccc1F)N1CS(=O)(=O)CN(c2ccc(Cl)cc2)C1=O [II-3, 3-(4-chlorophenyl)-5-(2,6-difluorobenzoyl)tetrahydro-4H-1,3,5-thiadiazin-4-one-1,1-dioxide]

SMILES: O=C(c1c(F)cccc1F)N1CSCN(c2cc(Cl)c(F)c(Cl)c2F)C1=O [II-10]
rate of dead pests (%) (Spodoptera litura [4]): 100% | rate of dead pests (%) (Plutella xylostella [1]): 100% | rate of pest control (%) (Plutella xylostella [2]): 88% | rate of dead pests (%) (Spodoptera litura [3]): 100%

SMILES: O=C(c1c(F)cccc1F)N1COCN(c2cc(Cl)c(F)c(Cl)c2F)C1=O [I-4]
rate of dead pests (%) (Spodoptera litura [4]): 100% | rate of pest control (%) (Plutella xylostella [2]): 92% | rate of dead pests (%) (Spodoptera litura [3]): 100% | rate of dead pests (%) (Plutella xylostella [5]): 95%

SMILES: O=C(c1c(F)cccc1F)N1COCN(c2ccc(SC(F)(F)F)cc2F)C1=O [I-44, 3-(2,6-difluorobenzoyl)-5-[2-fluoro-4-(trifluoromethylthio)phenyl]tetrahydro-4H-1,3,5-oxadiazin-4-one]
rate of pest control (%) (Plutella xylostella [6]): 96% | pest or weed control at 25 ppm (Spodoptera litura [4]): 100% | pest or weed control at 100 ppm (Plutella xylostella [1]): 100% | rate of dead pests (%) (Plutella xylostella [7]; 1 mg/seed): 100% | rate of dead pests (%) (Plutella xylostella [7]; 5 mg/seed): 97% | pest or weed control at 100 ppm (Spodoptera litura [3]): 100% | pest or weed control at 25 ppm (Plutella xylostella [5]): 100%

SMILES: O=C(c1c(F)cccc1F)N1COCN(c2ccc([S+]([O-])C(F)(F)F)cc2F)C1=O (centres unmarked) [I-45, 3-(2,6-difluorobenzoyl)-5-[2-fluoro-4-(trifluoromethylsulfinyl)phenyl]tetrahydro-4H-1,3,5-oxadiazin-4-one]
rate of pest control (%) (Plutella xylostella [6]): 98% | pest or weed control at 25 ppm (Spodoptera litura [4]): 100% | pest or weed control at 100 ppm (Spodoptera litura [3]): 100%

SMILES: C[S+]([O-])c1ccc(N2COCN(C(=O)c3c(F)cccc3F)C2=O)c(F)c1 (centres unmarked) [I-29]
rate of dead pests (%) (Spodoptera litura [4]): 100% | rate of dead pests (%) (Plutella xylostella [1]): 100% | rate of pest control (%) (Plutella xylostella [2]): 92% | rate of dead pests (%) (Spodoptera litura [3]): 100% | rate of dead pests (%) (Plutella xylostella [5]): 100%

SMILES: O=C(c1c(F)cccc1F)N1COCN(c2ccc([S+]([O-])C(F)F)cc2F)C1=O (centres unmarked) [I-42, 3-(2,6-difluorobenzoyl)-5-[4-(difluoromethylsulfinyl)-2-fluorophenyl]tetrahydro-4H-1,3,5-oxadiazin-4-one]
rate of pest control (%) (Plutella xylostella [6]): 94% | pest or weed control at 25 ppm (Spodoptera litura [4]): 100% | pest or weed control at 100 ppm (Plutella xylostella [1]): 100% | pest or weed control at 100 ppm (Spodoptera litura [3]): 100% | pest or weed control at 25 ppm (Plutella xylostella [5]): 100%
